Measured values from patent US12612386B2, “Heteroaryl-triazole compounds as pesticides” (Bayer Aktiengesellschaft, priority 2020, dated 2026).

system: adult mosquitoes Aedes aegypti strain MONHEIM; experiment: Aedes aegypti test (AEDSAE surface treatment & contact assay); format: in vivo; settings: surface concentration 4 mg/m^2, 30 min exposure, 24 hours after contact, read-out: efficacy (mortality)
Protocol: Aedes aegypti Test (AEDSAE Surface Treatment & Contact Assay)
(§1) Solvent: Aceton+2000 ppm rapeseed oil methyl ester (RME)
(§2) This solution is pipetted onto a glazed tile and after evaporation of the acetone, adult mosquitoes of the species Aedes aegypti strain MONHEIM are placed onto the dried surface. The exposure time is 30 minutes. Mortality in percent (%) is determined 24 hours after contact of the insects to the treated surface. 100% mortality means that all tested insects are dead, whereas 0% means that no insect died.

SMILES	mortality at 4 mg/m2
C[C@H](NC(=O)c1cc(Br)cc(OC(F)(F)F)c1)c1ncnn1-c1cc(C(N)=O)ncn1 [I-21]	80 to 100%
C[C@H](NC(=O)c1cc(Cl)cc(OC(F)(F)F)c1)c1ncnn1-c1cc(C(N)=O)ncn1 [I-49]	80 to 100%

same assay, conditions: surface concentration 20 mg/m^2, 30 min exposure, 24 hours after contact, read-out: efficacy (mortality)

SMILES	mortality at 20 mg/m2
C[C@H](NC(=O)c1cc(Br)cc(OC(F)(F)F)c1)c1ncnn1-c1cc(C(N)=O)ncn1 [I-21]	80 to 100%
C[C@H](NC(=O)c1cc(Cl)cc(OC(F)(F)F)c1)c1ncnn1-c1cc(C(N)=O)ncn1 [I-49]	80 to 100%

system: green peach aphid (Myzus persicae); experiment: Myzus persicae spray test (MYZUPE); format: in vivo; settings: 120 h, 100 g/ha, after 5 days
Method in brief: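 Percent aphid kill, with 0% meaning none killed, was read 5 days after spraying. The preparation (acetone–DMF solvent, water with 1000 ppm emulsifier) was applied to Brassica pekinensis leaf disks carrying mixed-instar green peach aphids.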

SMILES	mortality at 100 g/ha
C[C@H](NC(=O)c1cc(Br)cc(OC(F)(F)F)c1)c1ncnn1-c1cc(C(N)=O)ncn1 [I-21]	90%
C[C@H](NC(=O)c1cc(Cl)cc(OC(F)(F)F)c1)c1ncnn1-c1cc(C(N)=O)ncn1 [I-49]	100%

system: larvae of the southern green stink bug (Nezara viridula); experiment: whole plant or invertebrate; format: in vivo; settings: 96 h
Method in brief: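 Percent mortality of southern green stink bug larvae was recorded at day 4, with 100% meaning all dead. The larvae were placed on barley sprayed with the test solution. That solution was prepared from acetone/dimethylformamide concentrate diluted in emulsifier-containing water (1000 ppm).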

SMILES	mortality at 100 g/ha	mortality at 500 g/ha
C[C@H](NC(=O)c1cc(Br)cc(OC(F)(F)F)c1)c1ncnn1-c1cc(C(N)=O)ncn1 [I-21]	100%	100%
C[C@H](NC(=O)c1cc(Cl)cc(OC(F)(F)F)c1)c1ncnn1-c1cc(C(N)=O)ncn1 [I-49]	100%	100%

system: cattle tick larvae (Rhipicephalus microplus), strain Parkhurst, resistant against synthetic pyrethroids; experiment: Rhipicephalus (Boophilus) microplus in-vitro contact test, larval cattle tick; format: in vivo; settings: 5 μg/cm^2 (=500 g/ha), after 48 hours
Method in brief: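 Larvae exposed by contact to a dried acetone film on glass; a 900 ppm solution yields 5 μg/cm^2. Scoring after 48 h at 27° C. counts dead plus moribund larvae as efficacy.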

SMILES	efficacy (larvae dead or moribund)
C[C@H](NC(=O)c1cc(Br)cc(OC(F)(F)F)c1)c1ncnn1-c1cc(C(N)=O)ncn1 [I-21]	100%
C[C@H](NC(=O)c1cc(Cl)cc(OC(F)(F)F)c1)c1ncnn1-c1cc(C(N)=O)ncn1 [I-49]	100%

system: adult mosquitoes Culex quinquefasciatus strain P00; experiment: Culex quinquefasciatus test (CULXFA surface treatment & contact assay); format: in vivo; settings: surface concentration 4 mg/m^2, 30 min exposure, 24 hours after contact, read-out: efficacy (mortality)
Protocol: Culex quinquefasciatus Test (CULXFA Surface Treatment & Contact Assay)
as §1
as §2, with “Culex quinquefasciatus” for “Aedes aegypti”, “P00” for “MONHEIM”

SMILES	mortality at 4 mg/m2
C[C@H](NC(=O)c1cc(Br)cc(OC(F)(F)F)c1)c1ncnn1-c1cc(C(N)=O)ncn1 [I-21]	80 to 100%
C[C@H](NC(=O)c1cc(Cl)cc(OC(F)(F)F)c1)c1ncnn1-c1cc(C(N)=O)ncn1 [I-49]	80 to 100%

same assay, conditions: surface concentration 20 mg/m^2, 30 min exposure, 24 hours after contact, read-out: efficacy (mortality)

SMILES	mortality at 20 mg/m2
C[C@H](NC(=O)c1cc(Cl)cc(OC(F)(F)F)c1)c1ncnn1-c1cc(C(N)=O)ncn1 [I-49]	80 to 100%

system: brown planthopper (Nilaparvata lugens); experiment: Nilaparvata lugens spray test; format: in vivo; settings: 96 h
Method in brief: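 Rice plants (Oryza sativa) sprayed with compound formulated in acetone/DMF with alkylarylpolyglycol ether emulsifier (1000 ppm in diluting water), then infested with planthoppers. Mortality (%) scored after 4 days; 100% = all insects killed, 0% = none killed.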

SMILES	mortality at 500 g/ha
C[C@H](NC(=O)c1cc(Cl)cc(OC(F)(F)F)c1)c1ncnn1-c1cc(C(N)=O)ncn1 [I-49]	100%

system: fall armyworm larvae (Spodoptera frugiperda); experiment: whole plant or invertebrate; format: in vivo; settings: 168 h
Method in brief: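 Percent kill of Spodoptera frugiperda caterpillars, read 7 days after infestation of dried, spray-treated Zea mays leaf pieces. Spray preparation: compound in acetone plus dimethylformamide, diluted with emulsifier-containing water.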

SMILES	mortality at 100 g/ha
C[C@H](NC(=O)c1cc(Br)cc(OC(F)(F)F)c1)c1ncnn1-c1cc(C(N)=O)ncn1 [I-21]	100%
C[C@H](NC(=O)c1cc(Cl)cc(OC(F)(F)F)c1)c1ncnn1-c1cc(C(N)=O)ncn1 [I-49]	100%

system: adult flies Musca domestica strain WHO-N; experiment: Musca domestica test (MUSCDO surface treatment & contact assay); format: in vivo; settings: surface concentration 4 mg/m^2, 30 min exposure, 24 hours after contact, read-out: efficacy (mortality)
Protocol: Musca domestica Test (MUSCDO Surface Treatment & Contact Assay)
as §1
as §2, with “flies” for “mosquitoes”, “Musca domestica” for “Aedes aegypti”, “WHO-N” for “MONHEIM”

SMILES	mortality at 4 mg/m2
C[C@H](NC(=O)c1cc(Br)cc(OC(F)(F)F)c1)c1ncnn1-c1cc(C(N)=O)ncn1 [I-21]	80 to 100%
C[C@H](NC(=O)c1cc(Cl)cc(OC(F)(F)F)c1)c1ncnn1-c1cc(C(N)=O)ncn1 [I-49]	80 to 100%

same assay, conditions: surface concentration 20 mg/m^2, 30 min exposure, 24 hours after contact, read-out: efficacy (mortality)

SMILES	mortality at 20 mg/m2
C[C@H](NC(=O)c1cc(Br)cc(OC(F)(F)F)c1)c1ncnn1-c1cc(C(N)=O)ncn1 [I-21]	80 to 100%
C[C@H](NC(=O)c1cc(Cl)cc(OC(F)(F)F)c1)c1ncnn1-c1cc(C(N)=O)ncn1 [I-49]	80 to 100%

system: adult animals Blattella germanica strain PAULINIA; experiment: Blattella germanica test (BLTTGE surface treatment & contact assay); format: in vivo; settings: surface concentration 4 mg/m^2, 30 min exposure, 24 hours after contact, read-out: efficacy (mortality)
Protocol: Blattella germanica Test (BLTTGE Surface Treatment & Contact Assay)
as §1
In order to produce a sufficient, active ingredient containing solution it is necessary to solve the test compound in the solvent-mix (acetone at 2 mg/ml/RME 2000 ppm). This solution is pipetted onto a glazed tile and after evaporation of the acetone, adult animals of the species Blattella germanica strain PAULINIA are placed onto the dried surface. The exposure time is 30 minutes.
Mortality in percent (%) is determined 24 hours after contact of the insects to the treated surface. 100% mortality means that all tested insects are dead, whereas 0% means that no insect died.

SMILES	mortality at 4 mg/m2
C[C@H](NC(=O)c1cc(Br)cc(OC(F)(F)F)c1)c1ncnn1-c1cc(C(N)=O)ncn1 [I-21]	80 to 100%
C[C@H](NC(=O)c1cc(Cl)cc(OC(F)(F)F)c1)c1ncnn1-c1cc(C(N)=O)ncn1 [I-49]	80 to 100%

same assay, conditions: surface concentration 20 mg/m^2, 30 min exposure, 24 hours after contact, read-out: efficacy (mortality)

SMILES	mortality at 20 mg/m2
C[C@H](NC(=O)c1cc(Br)cc(OC(F)(F)F)c1)c1ncnn1-c1cc(C(N)=O)ncn1 [I-21]	80 to 100%
C[C@H](NC(=O)c1cc(Cl)cc(OC(F)(F)F)c1)c1ncnn1-c1cc(C(N)=O)ncn1 [I-49]	80 to 100%

system: adult cat fleas (Ctenocephalides felis); experiment: Ctenocephalides felis in-vitro contact test, adult cat flea; format: in vivo; settings: 5 μg/cm^2 (=500 g/ha), after 48 hours
Method in brief: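 After 48 h of room-temperature exposure in tubes whose walls carried dried compound residue (5 μg/cm^2, from 900 ppm acetone solution), adult cat fleas (5-10 per tube) were heat-challenged at 45-50° C up to 5 min. Fleas unable to climb away were counted dead or moribund, expressed as % efficacy.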

SMILES	efficacy (fleas dead or moribund)
C[C@H](NC(=O)c1cc(Br)cc(OC(F)(F)F)c1)c1ncnn1-c1cc(C(N)=O)ncn1 [I-21]	100%
C[C@H](NC(=O)c1cc(Cl)cc(OC(F)(F)F)c1)c1ncnn1-c1cc(C(N)=O)ncn1 [I-49]	100%

system: larvae of the banded cucumber beetle (Diabrotica balteata); experiment: Diabrotica balteata spray test; format: in vivo; settings: 168 h, 100 g/ha (=32 μg/well), after 7 days, read-out: efficacy (seedling growth)
Method in brief: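 Efficacy is seedling survival after 7 days, where 0% means no seedlings grew and 100% means growth equal to untreated, uninfested controls. Wheat seedlings, germinated on agar for 1 day, were sprayed with the aqueous emulsifier dilution (acetone/DMF solvent) and then exposed to 10–20 banded cucumber beetle larvae.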

SMILES	pest or weed control at 32 µg/disc, 100 g/ha
C[C@H](NC(=O)c1cc(Br)cc(OC(F)(F)F)c1)c1ncnn1-c1cc(C(N)=O)ncn1 [I-21]	100%
C[C@H](NC(=O)c1cc(Cl)cc(OC(F)(F)F)c1)c1ncnn1-c1cc(C(N)=O)ncn1 [I-49]	100%

system: adult brown dog ticks (Rhipicephalus sanguineus); experiment: Rhipicephalus sanguineus in-vitro contact test, adult brown dog ticks; format: in vivo; settings: 48 h, read-out: efficacy (ticks dead or moribund)
Method in brief: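 Contact exposure: dried compound film inside glass tubes, dose 5 μg/cm^2 at 900 ppm, 5-10 adults per tube at room temperature. Scored at 48 h via a heat-escape test on a 45-50° C plate for up to 5 min.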

SMILES	pest or weed control at 5 µg/cm2, 500 g/ha
C[C@H](NC(=O)c1cc(Br)cc(OC(F)(F)F)c1)c1ncnn1-c1cc(C(N)=O)ncn1 [I-21]	100%
C[C@H](NC(=O)c1cc(Cl)cc(OC(F)(F)F)c1)c1ncnn1-c1cc(C(N)=O)ncn1 [I-49]	80%
